Data taken from patent publication US20100330172A1, “CONTROLLED-RELEASE PHARMACEUTICAL FORMULATION” (ALPHAPHARM PTY LTD, priority 2007, published 2010).

Key:
[1] = system: norepinephrine uptake; conditions: in vitro studies; cited from earlier work
[2] = cited from earlier work
[3] = system: dopamine uptake; conditions: in vitro studies; cited from earlier work
[4] = Desvenlafaxine particle size (MMD); type: physicochemical; conditions: particle size of desvenlafaxine salt grade
Excerpt: The “mass mean diameter” or “MMD” refers to the median particle diameter based on mass (i.e. the particle diameter where one half of the mass of particles is contributed by particles with a lesser diameter and one half of the mass of particles is contributed by particles with a greater diameter) and can be measured using various commonly available methods such as measurement using light (eg. light-scattering methods or turbidimetric methods), sedimentation methods (eg. pipette analysis using an Andreassen pipette, sedimentation scales, photo-sedimentometers or sedimentation in a centrifugal force), pulse methods (eg. Coulter counter), or sorting by means of gravitational or centrifugal force.
The particle size of desvenlafaxine utilised in the following formulations are set out in Table 1.

[5] = in vitro dissolution, USP II apparatus (paddles), 50 rpm, pH 6.8 phosphate buffer; type: physicochemical; conditions: FIG. 1; similar time points; matrix tablets with Eudragit NE40D
Description: FIG. 1 is the in vitro dissolution profiles of embodied formulations of the present invention when measured using a USP II apparatus at 50 rpm in pH 6.8 phosphate buffer.
The resulting in vitro dissolution profiles of these batches as tested using a USP II apparatus (paddles) at 50 rpm in pH 6.8 phosphate buffer are set out in Table 3.

| SMILES | MMD (mass mean diameter) [4] [μm] | change in amount of desvenlafaxine dissolved, coarse to fine [5] | also measured |
| --- | --- | --- | --- |
| CN(C)CC(c1ccc(O)cc1)C1(O)CCCCC1 (racemic) [desvenlafaxine, (+/−)-4-[2-(dimethylamino)-1-(1-hydroxycyclohexyl)ethyl]phenol] | – | – | inhibition of norepinephrine uptake compared with racemic venlafaxine [1]: more potent inhibitor; half-life ([2]; in vivo): about 10 hours; half-life relative to venlafaxine ([2]; times longer than the half-life of venlafaxine): approximately 2.5 times; inhibition of dopamine uptake compared with racemic venlafaxine [3]: more potent inhibitor |
| CN(C)CC(c1ccc(O)cc1)C1(O)CCCCC1.O=C(O)/C=C/C(=O)O (stereo not shown) [Coarse fumarate] | 184 | – | – |
| CN(C)CC(c1ccc(O)cc1)C1(O)CCCCC1.O=C(O)/C=C/C(=O)O (stereo not shown) [Fine fumarate] | 21 | approximately similar increase in the amount of desvenlafaxine dissolved | – |

Now from value to compound, other results behind:

| MMD (mass mean diameter) [4] [μm] | SMILES | change in amount of desvenlafaxine dissolved, coarse to fine [5] | also measured |
| --- | --- | --- | --- |
| 186 | CN(C)CC(c1ccc(O)cc1)C1(O)CCCCC1.O=C(O)CCC(=O)O (stereo not shown) [Coarse succinate] | – | – |
| 37 | CN(C)CC(c1ccc(O)cc1)C1(O)CCCCC1.O=C(O)CCC(=O)O (stereo not shown) [Fine succinate] | marked increase in the amount of desvenlafaxine dissolved | – |
